# Laboratory results published in PubChem BioAssay AID2060905 (Molecular Pharmacology Branch, DTP, NCI, 2025).
# System: 282377-053-R-J1-PDC complex spheroid viability
# Test: Anticancer human tumor 282377-053-R-J1-PDC patient-derived colon adenocarcinoma cell line growth inhibition [RAS]
# Conditions: for IC50: curve of first compound; for viability, T/C: stronger effect = lower value
# Method in brief: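 Tumour cells grown as complex spheroids with HUVEC endothelial cells and mesenchymal stem cells, treated with RAS pathway inhibitor combinations. Each agent spans half-log steps from near clinical Cmax, or 10 microM where Cmax is unknown.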
# [1] = second compound 0.00316 µM, first compound 0.00316 µM
# [2] = second compound 0.00316 µM, first compound 0.01 µM
# [3] = second compound 0.00316 µM, first compound 0.0316 µM
# [4] = second compound 0.00316 µM, first compound 0.1 µM
# [5] = second compound 0.00316 µM, first compound 0.316 µM
# [6] = second compound 0.00316 µM, first compound 1 µM
# [7] = second compound 0.01 µM, first compound 0.00316 µM
# [8] = second compound 0.01 µM, first compound 0.01 µM
# [9] = second compound 0.01 µM, first compound 0.0316 µM
# [10] = second compound 0.01 µM, first compound 0.1 µM
# [11] = second compound 0.01 µM, first compound 0.316 µM
# [12] = second compound 0.01 µM, first compound 1 µM
# [13] = second compound 0.0316 µM, first compound 0.00316 µM
# [14] = second compound 0.0316 µM, first compound 0.01 µM
# [15] = second compound 0.0316 µM, first compound 0.0316 µM
# [16] = second compound 0.0316 µM, first compound 0.1 µM
# [17] = second compound 0.0316 µM, first compound 0.316 µM
# [18] = second compound 0.0316 µM, first compound 1 µM
# [19] = second compound 0.1 µM, first compound 0.00316 µM
# [20] = second compound 0.1 µM, first compound 0.01 µM
# [21] = second compound 0.1 µM, first compound 0.0316 µM
# [22] = second compound 0.1 µM, first compound 0.1 µM
# [23] = second compound 0.1 µM, first compound 0.316 µM
# [24] = second compound 0.1 µM, first compound 1 µM
# [25] = second compound 0.316 µM, first compound 0.00316 µM
# [26] = second compound 0.316 µM, first compound 0.01 µM
# [27] = second compound 0.316 µM, first compound 0.0316 µM
# [28] = second compound 0.316 µM, first compound 0.1 µM
# [29] = second compound 0.316 µM, first compound 0.316 µM
# [30] = second compound 0.316 µM, first compound 1 µM
# [31] = second compound 1 µM, first compound 0.00316 µM
# [32] = second compound 1 µM, first compound 0.01 µM
# [33] = second compound 1 µM, first compound 0.0316 µM
# [34] = second compound 1 µM, first compound 0.1 µM
# [35] = second compound 1 µM, first compound 0.316 µM
# [36] = second compound 1 µM, first compound 1 µM
# 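Also: spheroids exposed to agents for seven days before readout.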
# 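For viability, T/C in this document: luminescence viability as percent of DMSO vehicle control wells.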
compound,measurement,setting,value
C=CC(=O)Nc1cc(Nc2nccc(-c3cn(C)c4ccccc34)n2)c(OC)cc1N(C)CCN(C)C + C=CC(=O)N1CCN(c2nc(OCC3CCCN3C)nc3c(F)c(-c4nc(N)cc(C)c4C(F)(F)F)c(Cl)cc23)C(C)C1,IC50,second compound 0.00316 µM,> 1000 nM
same,IC50,second compound 0.01 µM,> 1000 nM
same,IC50,second compound 0.0316 µM,> 1000 nM
same,IC50,second compound 0.1 µM,> 1000 nM
same,IC50,second compound 0.316 µM,> 1000 nM
same,IC50,second compound 1 µM,> 1000 nM
same,"viability, T/C",[1],126%
same,"viability, T/C",[2],113%
same,"viability, T/C",[3],124%
same,"viability, T/C",[4],102%
same,"viability, T/C",[5],112%
same,"viability, T/C",[6],114%
same,"viability, T/C",[7],123%
same,"viability, T/C",[8],111%
same,"viability, T/C",[9],100%
same,"viability, T/C",[10],106%
same,"viability, T/C",[11],109%
same,"viability, T/C",[12],100%
same,"viability, T/C",[13],112%
same,"viability, T/C",[14],112%
same,"viability, T/C",[15],100%
same,"viability, T/C",[16],124%
same,"viability, T/C",[17],114%
same,"viability, T/C",[18],96.3%
same,"viability, T/C",[19],118%
same,"viability, T/C",[20],107%
same,"viability, T/C",[21],136%
same,"viability, T/C",[22],113%
same,"viability, T/C",[23],94.7%
same,"viability, T/C",[24],120%
same,"viability, T/C",[25],122%
same,"viability, T/C",[26],107%
same,"viability, T/C",[27],110%
same,"viability, T/C",[28],105%
same,"viability, T/C",[29],121%
same,"viability, T/C",[30],122%
same,"viability, T/C",[31],139%
same,"viability, T/C",[32],116%
same,"viability, T/C",[33],114%
same,"viability, T/C",[34],118%
same,"viability, T/C",[35],121%
same,"viability, T/C",[36],137%
O=C(c1ccc(F)c(F)c1Nc1ccc(I)cc1F)N1CC(O)([C@@H]2CCCCN2)C1 + C=CC(=O)N1CCN(c2nc(OCC3CCCN3C)nc3c(F)c(-c4nc(N)cc(C)c4C(F)(F)F)c(Cl)cc23)C(C)C1,IC50,second compound 0.00316 µM,80.8 nM
same,IC50,second compound 0.01 µM,104 nM
same,IC50,second compound 0.0316 µM,130 nM
same,IC50,second compound 0.1 µM,176 nM
same,IC50,second compound 0.316 µM,145 nM
same,IC50,second compound 1 µM,141 nM
same,"viability, T/C",[1],90.2%
same,"viability, T/C",[2],88.3%
same,"viability, T/C",[3],77.2%
same,"viability, T/C",[4],41.4%
same,"viability, T/C",[5],32.6%
same,"viability, T/C",[6],18.4%
same,"viability, T/C",[7],102%
same,"viability, T/C",[8],94%
same,"viability, T/C",[9],68.8%
same,"viability, T/C",[10],52.3%
same,"viability, T/C",[11],31.6%
same,"viability, T/C",[12],17.7%
same,"viability, T/C",[13],88.5%
same,"viability, T/C",[14],87.3%
same,"viability, T/C",[15],81.3%
same,"viability, T/C",[16],56.1%
same,"viability, T/C",[17],28.9%
same,"viability, T/C",[18],20.7%
same,"viability, T/C",[19],95.6%
same,"viability, T/C",[20],86.2%
same,"viability, T/C",[21],95.1%
same,"viability, T/C",[22],66.3%
same,"viability, T/C",[23],32.9%
same,"viability, T/C",[24],21.1%
same,"viability, T/C",[25],101%
same,"viability, T/C",[26],95.8%
same,"viability, T/C",[27],87.2%
same,"viability, T/C",[28],57.8%
same,"viability, T/C",[29],32.2%
same,"viability, T/C",[30],17.9%
same,"viability, T/C",[31],98.3%
same,"viability, T/C",[32],93.7%
same,"viability, T/C",[33],98.5%
same,"viability, T/C",[34],55.7%
same,"viability, T/C",[35],35.5%
same,"viability, T/C",[36],18%
